In publication PMC2644305 (Nature chemical biology, 2009):

Target: FACL19 (Mycobacterium tuberculosis, UniProt P9WQ51)

CC(C)(COP(=O)(O)OP(=O)(O)OC[C@H]1O[C@@H](n2cnc3c(N)ncnc32)[C@H](O)[C@@H]1OP(=O)(O)O)[C@@H](O)C(=O)NCCC(=O)NCCS [compound 1, CoASH]
KM: Kinetic analysis of CoA formation by wild type FACL19 and FACL19i proteins

Nc1ncnc2c1ncn2[C@@H]1O[C@H](COP(=O)(O)OP(=O)(O)OP(=O)(O)O)[C@@H](O)[C@H]1O [compound 3, ATP]
KM: no significant change in KM was observed for ATP
